Laboratory results as given in patent US10829520B2, “Beta-hairpin peptidomimetics” (POLYPHOR AG, priority 2015, dated 2020).
Where a SMILES comes first, the peptide text is derived from it. Bridges are numbered along the chain shown (N, C = ends). Roman numbers before positions name the chains, in order. [ ]: non-standard residue; d: D form. Tle = CC(C)(C)[C@H](N)C(=O)O; dDab = NCC[C@@H](N)C(=O)O; Nle = CCCC[C@H](N)C(=O)O; Orn = NCCC[C@H](N)C(=O)O; Dab = NCC[C@H](N)C(=O)O

Key:
Type in all cases: cell-based
[1] = system: Acinetobacter baumannii 872842; settings: 872842
[2] = system: Pseudomonas aeruginosa ATCC 27853; settings: ATCC 27853
Outline: (§1)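 Read-out is the minimal inhibitory concentration in μg/mL, taken as the lowest peptide level without visible growth after 18-20 h at 35° C. Testing followed CLSI broth microdilution in cation-adjusted Mueller-Hinton II broth plus 0.002% Polysorbate 80, with roughly 10^6 CFU/mL.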

[3] = system: Acinetobacter baumannii DSM 30008; settings: DSM 30008
Outline: as §1

[4] = system: Klebsiella pneumoniae 968733; settings: 968733
[5] = system: Klebsiella pneumoniae SSI #3010; settings: SSI #3010
Outline: as §1

[6] = system: Escherichia coli ATCC 25922; settings: ATCC 25922
Outline: as §1

[7] = system: Escherichia coli 926415; settings: 926415
[8] = system: human red blood cells (hRBC); assay: Hemolysis of human red blood cells; settings: red cells of human, 1 h
Outline: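 Hemolysis was read as supernatant absorbance at 540 nm and expressed as a percentage of Triton X-100 (2.5%) lysis. Washed human red cells (20% v/v) had been exposed to each peptide at 100 μg/mL for 1 h at 37° C.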

Row | Structure (SMILES) | Acinetobacter baumannii 872842 MIC [1] [µg/mL] | Pseudomonas aeruginosa ATCC 27853 MIC [2] [µg/mL] | Acinetobacter baumannii DSM 30008 MIC [3] [µg/mL] | Klebsiella pneumoniae 968733 MIC [4] [µg/mL] | Klebsiella pneumoniae SSI #3010 MIC [5] [µg/mL] | Escherichia coli ATCC 25922 MIC [6] [µg/mL] | Escherichia coli 926415 MIC [7] [µg/mL] | Hemolysis at 100 μg/mL [8]; 100 [%] | Hemolysis at 100 μg/mL ([8]; 100 μg/mL) [%]
1 | CCCC[C@@H]1NC(=O)[C@@H]2CCCN2C(=O)[C@H]2CCCN2C(=O)[C@H](CO)NC(=O)[C@H](C)NC(=O)[C@H](C(C)(C)C)NC(=O)[C@H](CCN)NC(=O)[C@H](Cc2c[nH]c3ccccc23)NC(=O)[C@@H](NC(C)=O)CCNC(=O)CC[C@@H](C(=O)N[C@H](CCN)C(=O)N[C@H]2CCNC(=O)[C@H]([C@@H](C)O)NC(=O)[C@H](CCN)NC(=O)[C@H](CCN)NC(=O)[C@H](CC(C)C)NC(=O)[C@@H](Cc3ccccc3)NC(=O)[C@H](CCN)NC2=O)NC(=O)[C@H](CCCN)NC(=O)[C@H](CCN)NC(=O)[C@H](Cc2ccc(O)cc2)NC(=O)[C@H](CO)NC1=O [Ex. 197] (Ac-[Dab]W[Dab][Tle]AS[dP]P[Nle]SY[Dab][Orn]E[dDab][Dab][Dab][dF]L[Dab][Dab]T; lactam 1-14, 16-C) | 4 | 2 | 0.5 | 2 | 0.25 | 0.0625 | 0.25 | 2 | –
2 | CC(C)C[C@@H]1NC(=O)[C@H](CO)NC(=O)[C@H](Cc2ccc(O)cc2)NC(=O)[C@@H]2CCCN2C(=O)[C@H]2CCCN2C(=O)[C@H](C(C)C)NC(=O)[C@H](C)NC(=O)[C@H](C(C)C)NC(=O)[C@@H](NC(=O)[C@@H](N)C(C)C)CSSC[C@@H](C(=O)NCC(=O)N[C@@H](CCN)C(=O)N[C@H](C(=O)N[C@@H](CCN)C(=O)N[C@H]2CCNC(=O)[C@H]([C@@H](C)O)NC(=O)[C@H](CCN)NC(=O)[C@H](CCN)NC(=O)[C@H](CC(C)C)NC(=O)[C@@H](CC(C)C)NC(=O)[C@H](CCN)NC2=O)[C@@H](C)O)NC1=O [Ex. 155] (H-VCVAV[dP]PYSLCG[Dab]T[Dab][Dab][Dab][dL]L[Dab][Dab]T; disulfide 2-11; lactam 16-C) | 0.0625 | 1 | 0.03125 | 0.5 | 0.0625 | 0.0625 | 0.25 | – | <1
3 | CC(=O)N[C@@H](Cc1c[nH]c2ccccc12)C(=O)N[C@@H](CCN)C(=O)N[C@H](C(=O)N[C@H]1CC(=O)NCC[C@@H](C(=O)N[C@@H](Cc2ccc(O)cc2)C(=O)N[C@@H](CCN)C(=O)N[C@H](C(=O)N[C@@H](CCN)C(=O)N[C@@H](CCN)C(=O)N[C@@H](CCN)C(=O)N[C@H]2CCNC(=O)[C@H]([C@@H](C)O)NC(=O)[C@H](CCN)NC(=O)[C@H](CCN)NC(=O)[C@H](CC(C)C)NC(=O)[C@@H](CC(C)C)NC(=O)[C@H](CCN)NC2=O)[C@@H](C)O)NC(=O)[C@H](C(C)C)NC(=O)[C@@H]2CCCN2C(=O)[C@H]2CCCN2C(=O)[C@H](Cc2c[nH]cn2)NC1=O)C(C)(C)C [Ex. 168] (Ac-W[Dab][Tle]DH[dP]PV[Dab]Y[Dab]T[Dab][Dab][Dab][Dab][Dab][dL]L[Dab][Dab]T; lactam 4-9, 16-C) | 1 | 0.25 | 2 | 4 | 1 | 0.5 | 0.5 | 3 | –
4 | CCCC[C@@H]1NC(=O)[C@@H]2CCCN2C(=O)[C@H]2CCCN2C(=O)[C@H](CO)NC(=O)[C@H](C)NC(=O)[C@H](C(C)(C)C)NC(=O)[C@H](CCN)NC(=O)[C@H](Cc2c[nH]c3ccccc23)NC(=O)[C@H](CCC(=O)N[C@@H](CCN)C(=O)N[C@H]2CCNC(=O)[C@H]([C@@H](C)O)NC(=O)[C@H](CCN)NC(=O)[C@H](CCN)NC(=O)[C@H](CC(C)C)NC(=O)[C@@H](CC(C)C)NC(=O)[C@H](CCN)NC2=O)NC(=O)[C@@H](CCN)NC(=O)[C@H](CCCN)NC(=O)[C@H](CCN)NC(=O)[C@H](Cc2ccc(O)cc2)NC(=O)[C@H](CO)NC1=O [Ex. 70] (I: cyclo([Nle]SY[Dab][Orn][dDab]EW[Dab][Tle]AS[dP]P) / II: [Dab][Dab][Dab][dL]L[Dab][Dab]T; amide I:7-II:N; lactam II:2-II:C) | 2 | 0.5 | 1 | 8 | 2 | 1 | 1 | <1 | –
5 | CCCC[C@@H]1NC(=O)[C@@H]2CCCN2C(=O)[C@H]2CCCN2C(=O)[C@H](CO)NC(=O)[C@H](C)NC(=O)[C@H](C(C)(C)C)NC(=O)[C@H](CCN)NC(=O)[C@H](Cc2c[nH]c3ccccc23)NC(=O)[C@@H](NC(C)=O)CSSC[C@@H](C(=O)N[C@@H](CCN)C(=O)N[C@H]2CCNC(=O)[C@H]([C@@H](C)O)NC(=O)[C@H](CCN)NC(=O)[C@H](CCN)NC(=O)[C@H](CC(C)C)NC(=O)[C@@H](Cc3ccccc3)NC(=O)[C@H](CCN)NC2=O)NC(=O)[C@H](CCCN)NC(=O)[C@H](CCN)NC(=O)[C@H](Cc2ccc(O)cc2)NC(=O)[C@H](CO)NC1=O [Ex. 57] (Ac-CW[Dab][Tle]AS[dP]P[Nle]SY[Dab][Orn]C[Dab][Dab][Dab][dF]L[Dab][Dab]T; disulfide 1-14; lactam 16-C) | 4 | 0.5 | 1 | 8 | 0.25 | 0.25 | 1 | – | <1
6 | CC(C)C[C@@H]1NC(=O)[C@@H](CC(C)C)NC(=O)[C@H](CCN)NC(=O)[C@@H](NC(=O)[C@H](CCN)NC(=O)[C@@H](NC(=O)[C@H](CCN)NC(=O)CC[C@@H]2NC(=O)CNC(=O)[C@H](Cc3ccc(O)cc3)NC(=O)[C@H](CO)NC(=O)[C@H](CC(C)C)NC(=O)[C@@H]3CCCN3C(=O)[C@H]3CCCN3C(=O)[C@H](CO)NC(=O)[C@H]([C@@H](C)O)NC(=O)[C@H](C(C)C)NC(=O)[C@H](CCN)NC(=O)[C@H](Cc3c[nH]c4ccccc34)NC(=O)[C@H](CCN)NC(=O)[C@@H](CCN)NC2=O)[C@@H](C)O)CCNC(=O)[C@H]([C@@H](C)O)NC(=O)[C@H](CCN)NC(=O)[C@H](CCN)NC1=O [Ex. 90] (I: cyclo(LSYGE[dDab][Dab]W[Dab]VTS[dP]P) / II: [Dab]T[Dab][Dab][Dab][dL]L[Dab][Dab]T; amide I:5-II:N; lactam II:4-II:C) | 0.25 | 0.25 | 0.125 | 0.25 | 0.125 | 0.125 | 0.25 | 1 | –
